# From PubChem BioAssay AID2060505 (Molecular Pharmacology Branch, DTP, NCI, 2025)
# Values joined by “and” are separate entries in the source; they are usually repeats but may differ in a detail not shown here. Equal entries are not always repeated.
# System: 633275-114-R-J1-PDC complex spheroids, viability
# Assay: Anticancer human tumor 633275-114-R-J1-PDC patient-derived endometrial adenocarcinoma cell line growth inhibition [GQUAD]
# Details: for viability, T/C: stronger effect = lower value
# Source text: DNA G-quadruplex Stabilizer Agents in Combinations in Complex Spheroids
# A high-throughput screen of multi-cell type tumor spheroids was designed to identify active combinations of DNA G-quadruplex stabilizer agents and targeted small molecules. Complex spheroids include a stromal component modeled by human endothelial cells (HUVEC) and fibroblasts modeled by human mesenchymal stem cells (MSCs). The concentration ranges selected for each drug and investigational agent were based upon clinically achievable concentrations if the clinical Cmax of the agent was known.
# Compounds. The drugs and investigational agents: pidnarulex (CX-5461; NSC782164), APTO-253 (NSC789042), BRACO-19 (NSC847499), peposertib (NSC802822), ceralasertib (NSC780249), elimusertib (NSC800525), camonsertib (NSC841442), AZD-1390 (NSC803789), olaparib (NSC753686), talazoparib (NSC767125), ART-558 (NSC835418), sotorasib (NSC818433), MRTX-1133 (NSC836407), SN-38 (NSC673596), topotecan (NSC609699), etoposide (NSC141540), doxorubicin (NSC123127), gemcitabine (NSC613327), 5-fluorouracil (NSC19893), paclitaxel (NSC125973), vemurafenib (NSC761431), panobinostat (NSC761190), R-306465 (JNJ-16241199; NSC773264), adavosertib (NSC754352), TP-3654 (NSC805149), carboplatin (NSC241240), KSQ-4279 (NSC840948), and staurosporine (NSC755774) were obtained from the National Cancer Institute (NCI) Developmental Therapeutics Program Chemical Repository (34). The FDA-approved anticancer drug set is available from the NCI Developmental Therapeutics Program. […] The stock solutions were prepared in dimethyl sulfoxide (DMSO, Sigma-Aldrich, St. Louis, MO, cat. D2650) at 800-fold the tested concentration and stored at -70 degrees C prior to their use. All drugs and investigational agents were tested over a range starting from a high concentration at or near the clinical Cmax and decreasing in half-log increments. If the clinical Cmax for an agent had not been determined, the highest concentration tested was 10 microM.
# 2.3 Cell Culture. All cells were maintained in an incubator at 37 degrees C and 5% CO2 with 95% humidity. The PDC lines were cultured according to standard operating procedures established by the NCI PDMR. All PDCs were thawed and cultured in Matrigel-coated flasks prepared with a working solution of 1X Ham's F-12 nutrient mix, without supplementation (Invitrogen, cat. 11765054), 100 U/mL penicillin-streptomycin (Invitrogen, cat. 15140122), and 2.5% Matrigel (Corning Inc., cat. 354248) for the first three passages. The 857933-349-R-J2-PDC line was cultured in 6C/Colon 1B media, which includes advanced DMEM/F-12 (Thermo Fisher Scientific, cat. 12634028), 10 mM HEPES (Thermo Fisher Scientific, cat. 15630080), 1X GlutaMAX supplement (Thermo Fisher Scientific, cat. 35050061), 0.1 mg/mL primocin (InvivoGen, cat. ant-pm-2), 10% defined fetal bovine serum, heat inactivated (HyClone Laboratories Inc., cat. SH30070.03HI), 50% L-WRN conditioned media (ATCC, cat. CRL-3276), 1.25 mM N-Acetyl-L-cysteine (Sigma-Aldrich, cat. A9165), 10 mM nicotinamide (Sigma-Aldrich, cat. N0636), 1X B-27 supplement (Thermo Fisher Scientific, cat. 17504044), 1X N-2 supplement (Thermo Fisher Scientific, cat. 17502048), 10 microM Y-27632 dihydrochloride (Tocris Bioscience, cat. 1254), and 50 ng/mL human EGF recombinant protein (Thermo Fisher Scientific, cat. PHG0311). The 485176-168-R4-J1-PDC line was cultured in Panc media, which includes all 6C/Colon 1B media components plus 100 ng/mL human FGF-10 (Thermo Fisher Scientific, cat. 100-26), 500 nM SB-431542 (Selleckchem, cat. S1067), and gastrin (Tocris, cat. 3006).
# […]
# [1] = compound alone, run of 03/18/2024
# 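Further: spheroids exposed to the agents for seven days.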
# 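Wherever viability, T/C is given: percent of DMSO vehicle control viability which is 100%.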
IC50 (curve of compound),IC50 [1],"IC50 (compound alone, run of 03/26/2024)",Compound,"viability, T/C (compound 0.0316 µM)","viability, T/C (compound 0.1 µM)","viability, T/C (compound 0.316 µM)","viability, T/C (compound 1 µM)","viability, T/C (compound 3.16 µM)","viability, T/C (compound 10 µM)","viability, T/C (compound 0.000999 µM)","viability, T/C (compound 0.00316 µM)","viability, T/C (compound 0.00999 µM)","viability, T/C (compound 0.0999 µM)"
442 nM and 384 nM and 466 nM,–,–,COc1cc(C2c3cc4c(cc3C(OC3OC5COC(C)OC5C(O)C3O)C3COC(=O)C23)OCO4)cc(OC)c1O (configuration not stated),90.9% and 82.6% and 84.5%,71.1% and 64.9% and 66.1%,50.1% and 51.4% and 46.9%,44.4% and 42.1% and 49.9%,38.2% (2×) and 36.1%,32.7% and 30.8% and 28.3%,–,–,–,–
4050 nM and 4540 nM and 3480 nM,–,–,COc1ccc([C@@H](O)c2cc(-c3ncnc4cc(N5CCOCC5)ccc34)c(F)cc2Cl)nn1,94.5% and 95% and 93.8%,98.8% and 89.7% and 92.3%,85.5% and 89.3% and 86.5%,73.6% and 74.7% and 67.5%,54.6% and 53.4% and 53.7%,35.3% and 42.5% and 31.2%,–,–,–,–
87.6 nM and 48.1 nM and 74.7 nM,–,–,COc1cccc2c1C(=O)c1c(O)c3c(c(O)c1C2=O)CC(O)(C(=O)CO)CC3OC1CC(N)C(O)C(C)O1 (configuration not stated),62% and 55.6% and 60.7%,45.2% and 39% and 44.2%,35.7% and 31.5% and 33%,21.9% and 16.8% and 22.1%,1.91% and 1.16% and 1.41%,2% and 1.77% and 1.5%,–,–,–,–
> 10000 nM,–,–,COc1ncnc(C2CC2)c1-c1ncc2cnn(Cc3ccc(-c4nc(C(F)(F)F)cn4C(C)C)cc3)c2n1,91.5% and 91.7% and 98.3%,95.1% and 89.5% and 100%,86.6% and 85.3% and 100%,90.3% and 101% and 82.7%,98% and 106% and 95.6%,85% and 87.1% and 84.9%,–,–,–,–
–,> 10000 nM,> 10000 nM,Cc1[nH]c2ccc(F)cc2c1-c1nc2c3cccnc3c3ncccc3c2[nH]1,104% [middle of 12 runs],102% [middle of 12 runs],99.1% [middle of 12 runs],92.6% [middle of 12 runs],73% [middle of 12 runs],72.2% [middle of 12 runs],–,–,–,–
61.3 nM and 59.6 nM and 61.1 nM,–,–,Cc1[nH]c2ccccc2c1CCNCc1ccc(/C=C/C(=O)NO)cc1,61.1% and 69.2% and 57.3%,–,18.1% and 22.3% and 22.9%,–,–,–,101% and 103% and 102%,85.1% and 98.6% and 81.7%,77.8% and 64.2% and 81.9%,43% and 39.6% and 43.9%
> 10000 nM,–,–,Cc1cccc(N(C)C(=O)C2C(O)CCN2c2nc(C)cc(C(F)(F)F)c2C#N)c1 (configuration not stated),104% and 106% and 102%,87.3% and 93.7% and 107%,96.6% and 105% and 93%,99.8% and 93.9% and 87.2%,104% and 103% and 98.8%,96.2% and 95.4% and 92.5%,–,–,–,–
–,187 nM [middle of 12 runs],–,Cc1cnc(CNC(=O)c2c(=O)c3ccc(N4CCCN(C)CC4)nc3n3c2sc2ccccc23)cn1,66.5% [middle of 12 runs],51.1% [middle of 12 runs],46.2% [middle of 11 runs],41.8% [middle of 12 runs],39% [middle of 12 runs],33.2% [middle of 12 runs],–,–,–,–
> 316 nM,–,–,Cn1ncnc1[C@H]1c2n[nH]c(=O)c3cc(F)cc(c23)N[C@@H]1c1ccc(F)cc1,79% (2×) and 83.2%,–,56.5% and 57.2% and 61.5%,–,–,–,101% and 100% and 95.7%,97.5% and 87.7% and 88.7%,87.6% and 88.2% and 102%,69.5% and 71% and 65.5%
< 31.6 nM,–,–,Nc1ccn(C2OC(CO)C(O)C2(F)F)c(=O)n1 (configuration not stated),30.6% and 26.5% and 26.6%,24.7% and 22.3% and 23.2%,28.7% and 23.9% and 24.1%,25.4% and 23.2% and 21.9%,27.3% and 23.6% and 20.7%,21.7% and 17.1% and 18.9%,–,–,–,–
177 nM and 198 nM and 252 nM,–,–,O=C(NO)c1cnc(N2CCN(S(=O)(=O)c3ccc4ccccc4c3)CC2)nc1,75.3% and 69.1% and 84.1%,61.1% and 65.8% and 72.9%,38.8% and 38.6% and 43.8%,21.8% (2×) and 19.6%,12.8% and 12.7% and 13.8%,5.19% and 5.98% and 4.22%,–,–,–,–
> 10000 nM,–,–,O=C(c1cc(Cc2n[nH]c(=O)c3ccccc23)ccc1F)N1CCN(C(=O)C2CC2)CC1,101% and 96.1% and 100%,94.1% and 84.6% and 94%,86.2% and 95.4% and 96.1%,85.2% and 91.4% and 78.4%,74.8% and 71.8% and 75.2%,58.2% and 52.5% and 61.2%,–,–,–,–
> 10000 nM,–,–,O=c1[nH]cc(F)c(=O)[nH]1,103% (2×) and 98.4%,90.1% and 99.8% and 94.7%,91.3% and 105% and 101%,95.9% and 91.8% and 94.2%,89.3% and 98.9% and 91.8%,77.6% and 72% and 67.4%,–,–,–,–
